# Experimental data reported in patent US12649750B2, “Macrocyclic compounds, compositions, and methods of using thereof” (Sionna Therapeutics Inc., priority 2022, dated 2026).
# Key:
# [1] = target: T1, NBD1 (Homo sapiens, UniProt P13569); assay: Aggregation analysis using differential static light scattering (DSLS), thermal stability of NBD1 (ΔTagg); assay type: binding; conditions: ΔTagg versus DMSO control, NBD1 0.2 mg/ml
# T1 construct: Purified recombinant NBD1 was produced using previously described methods; made in house
# T1 sequence (P13569 423-646 limits assumed): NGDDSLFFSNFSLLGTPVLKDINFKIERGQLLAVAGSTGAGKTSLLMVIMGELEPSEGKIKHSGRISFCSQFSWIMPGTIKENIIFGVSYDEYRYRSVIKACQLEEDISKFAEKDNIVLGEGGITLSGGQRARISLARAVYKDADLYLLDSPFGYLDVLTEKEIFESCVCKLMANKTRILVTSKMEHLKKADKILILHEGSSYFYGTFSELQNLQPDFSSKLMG
# Summary of the method: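 Purified recombinant NBD1 at 0.2 mg/ml in 50 mM Tris-HCl, 150 mM NaCl, 5 mM MgCl2, 2 mM ATP, 2 mM DTT, pH 7.6, 1% glycerol, with compound, heated 1° C./min to 70° C. under light-scattering monitoring. Tagg taken at curve inflection; ΔTagg is compound Tagg minus mean DMSO-control Tagg, binned A (≤5° C.), B (>5-≤10° C.), C (>10-≤25° C.).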
# [2] = target: T2, CFTR (Homo sapiens, UniProt P13569, DEL508-508); assay: TECC24 AUC fold over DMSO @10 μM, CFTR-mediated transepithelial chloride transport in CF-HBE cells; assay type: cell-based; conditions: test agent AUC divided by DMSO vehicle AUC, primary CF-HBE cells, ΔF508 homozygous donor, 48 hours incubation
# T2 construct: Primary human bronchial epithelial cells from a ΔF508 homozygous CF donor; host or cells: primary human bronchial epithelial cells (CF-HBE), ΔF508 homozygous donor
# T2 sequence (P13569 with tags, fused parts or gaps DEL508-508): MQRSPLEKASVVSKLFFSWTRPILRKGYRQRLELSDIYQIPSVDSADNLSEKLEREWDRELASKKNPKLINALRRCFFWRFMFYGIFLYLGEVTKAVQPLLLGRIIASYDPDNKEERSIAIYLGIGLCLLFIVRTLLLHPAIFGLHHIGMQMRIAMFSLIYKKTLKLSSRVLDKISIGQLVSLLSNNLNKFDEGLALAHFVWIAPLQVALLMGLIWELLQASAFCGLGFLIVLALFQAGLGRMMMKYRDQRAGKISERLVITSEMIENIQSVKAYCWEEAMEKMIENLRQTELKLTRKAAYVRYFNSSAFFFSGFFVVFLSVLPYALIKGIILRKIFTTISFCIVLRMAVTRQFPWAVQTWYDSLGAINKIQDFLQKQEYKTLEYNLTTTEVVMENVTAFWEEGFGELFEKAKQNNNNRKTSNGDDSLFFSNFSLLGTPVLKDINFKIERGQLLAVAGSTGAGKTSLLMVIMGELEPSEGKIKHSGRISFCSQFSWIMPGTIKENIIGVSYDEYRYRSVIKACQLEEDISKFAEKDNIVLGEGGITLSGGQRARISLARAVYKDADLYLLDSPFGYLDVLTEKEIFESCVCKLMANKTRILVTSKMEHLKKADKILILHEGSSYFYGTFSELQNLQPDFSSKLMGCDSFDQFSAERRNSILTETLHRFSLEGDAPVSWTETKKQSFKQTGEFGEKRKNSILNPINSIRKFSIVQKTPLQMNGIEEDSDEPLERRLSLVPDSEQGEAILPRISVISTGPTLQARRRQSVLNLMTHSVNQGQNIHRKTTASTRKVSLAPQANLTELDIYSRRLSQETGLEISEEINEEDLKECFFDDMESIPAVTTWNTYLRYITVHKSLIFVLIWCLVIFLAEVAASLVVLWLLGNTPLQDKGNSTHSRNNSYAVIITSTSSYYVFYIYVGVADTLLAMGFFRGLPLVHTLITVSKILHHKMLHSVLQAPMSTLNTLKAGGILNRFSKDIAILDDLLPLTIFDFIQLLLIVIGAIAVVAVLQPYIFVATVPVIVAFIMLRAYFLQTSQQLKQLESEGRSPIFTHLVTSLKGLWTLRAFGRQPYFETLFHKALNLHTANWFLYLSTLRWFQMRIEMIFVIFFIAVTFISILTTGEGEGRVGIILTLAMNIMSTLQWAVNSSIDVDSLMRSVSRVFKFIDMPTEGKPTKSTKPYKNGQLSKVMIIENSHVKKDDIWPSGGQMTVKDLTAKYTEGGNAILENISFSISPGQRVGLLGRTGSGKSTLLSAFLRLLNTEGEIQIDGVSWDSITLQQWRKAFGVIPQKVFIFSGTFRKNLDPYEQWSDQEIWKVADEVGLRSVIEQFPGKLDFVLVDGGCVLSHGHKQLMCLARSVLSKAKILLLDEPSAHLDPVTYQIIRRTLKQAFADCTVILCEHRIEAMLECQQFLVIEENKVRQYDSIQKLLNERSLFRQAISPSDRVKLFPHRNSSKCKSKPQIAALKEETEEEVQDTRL
# Summary of the method: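 ΔF508-homozygous primary bronchial epithelial cells incubated 48 h at 36.5° C with compound (10 μM) in IL-13-containing medium, then TECC24 current-clamp recording in pH 7.4 Hepes saline with benzamil 10 μM, forskolin 10 μM, then CFTR inhibitor-172 20 μM. Equivalent Cl− current AUC between forskolin and inhibitor, expressed as fold over DMSO.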
structure (smiles),measurement,setting,value
"Cc1cnn2c1-c1cc(ccc1F)Oc1c(F)cc3[nH]ccc3c1CCS(=O)(=O)CC(C)(C)COCC2c1cccc(CCC(=O)O)c1 (single isomer, unassigned) [Compound 85, 3-[3-(23,29-difluoro-3,11,11-trimethyl-13,13-dioxo-9,25-dioxa-13λ6-thia-5,6,20-triazapentacyclo[24.3.1.02,6.016,24.017,21]triaconta-1(30),2,4,16,18,21,23,26,28-nonaen-7-yl)phenyl]propanoic Acid]",DSLS 3D (100 μM ΔT),[1],A (an ΔTagg value less than or equal to 5 °C is marked “A”)
same,"TECC (AUC, 10 μM)",[2],A (a TECC value less than 12 is marked “A”)
"Cn1nc2nc1-c1cc(ccc1F)Oc1c(F)cc3[nH]ccc3c1CCS(=O)(=O)CC(C)(C)CCCC2(C)c1cccc(CC(=O)O)c1 (stereo not shown) [Compound 3, 2-[3-(22,28-Difluoro-3,6,10,10-tetramethyl-12,12-dioxo-24-oxa-12λ^6-thia-3,4,19,30-tetrazapentacyclo[23.3.1.1^2,5.0^15,23.0^16,20]triaconta-1(29),2(30),4,15,17,20,22,25,27-nonaen-6-yl)phenyl]acetic Acid]",DSLS 3D (100 μM ΔT),[1],C (a value greater than 10 °C and less than or equal to 25 °C is marked “C”)
same,"TECC (AUC, 10 μM)",[2],B (a value between 12-20 is marked “B”)
"Cn1nc2nc1-c1cc(ccc1F)Oc1c(F)cc3[nH]ccc3c1CCS(=O)(=O)CCCCOC2c1cccc(CCCO)c1 (stereo not shown) [Compound 296, 3-[3-(22,28-Difluoro-3-methyl-12,12-dioxo-7,24-dioxa-12lambda6-thia-3,4,19,30-tetrazapentacyclo[23.3.1.^12,5.0^15,23.0^16,20]triaconta-1(29),2(30),4,15(23),16(20),17,21,25,27-nonaen-6-yl)phenyl]propan-1-ol]",DSLS 3D (100 μM ΔT),[1],A (an ΔTagg value less than or equal to 5 °C is marked “A”)
same,"TECC (AUC, 10 μM)",[2],A (a TECC value less than 12 is marked “A”)
"CC(Cc1cccc(C2(N)CCCC(C)(C)CS(=O)(=O)CCc3c(c(F)cc4[nH]ccc34)Oc3ccc(F)c(c3)-c3nc2nn3C)c1)C(=O)O (stereo not shown) [Compound 138, 3-[3-(6-Amino-22,28-difluoro-3,10,10-trimethyl-12,12-dioxo-24-oxa-12λ6-thia-3,4,19,30-tetrazapentacyclo[23.3.1.12,5.015,23.016,20]triaconta-1(29),2(30),4,15,17,20,22,25,27-nonaen-6-yl)phenyl]-2-methyl-propanoic Acid]",DSLS 3D (100 μM ΔT),[1],C (a value greater than 10 °C and less than or equal to 25 °C is marked “C”)
same,"TECC (AUC, 10 μM)",[2],C (a value between 20 and 80 is marked “C”)
"[2H]C([2H])([2H])C1(c2cccc(CC(C)C(=O)O)c2F)CCCC(C)(C)CS(=O)(=O)CCc2c(c(F)cc3[nH]ccc23)Oc2ccc(F)c(c2)-c2nc1nn2C (single isomer, unassigned) [Compound 18B, 3-[3-[22,28-difluoro-3,10,10-trimethyl-12,12-dioxo-6-(trideuteriomethyl)-24-oxa-12lambda6-thia-3,4,19,30-tetrazapentacyclo[23.3.1.12,5.015,23.016,20]triaconta-1(29),2(30),4,15,17,20,22,25,27-nonaen-6-yl]-2-fluoro-phenyl]-2-methyl-propanoic acid]",DSLS 3D (100 μM ΔT),[1],C (a value greater than 10 °C and less than or equal to 25 °C is marked “C”)
same,"TECC (AUC, 10 μM)",[2],B (a value between 12-20 is marked “B”)
"COCC(Cc1cccc([C@@]2(C)CCCC(C)(C)CS(=O)(=O)CCc3c(c(F)cc4[nH]ccc34)[S+]([O-])c3ccc(F)c(c3)-c3nc2nn3C)c1)C(=O)O (single isomer, unassigned) [Compound 218B]",DSLS 3D (100 μM ΔT),[1],C (a value greater than 10 °C and less than or equal to 25 °C is marked “C”)
same,"TECC (AUC, 10 μM)",[2],C (a value between 20 and 80 is marked “C”)
"C[C@@H](Cc1cccc([C@@]2(C)CCCC(C)(C)CS(=O)(=O)CCc3c(c(F)cc4[nH]ccc34)[S+]([O-])c3ccc(F)c(c3)-c3nc2co3)c1)C(=O)O (single isomer, unassigned) [Compound 248B]",DSLS 3D (100 μM ΔT),[1],C (a value greater than 10 °C and less than or equal to 25 °C is marked “C”)
same,"TECC (AUC, 10 μM)",[2],A (a TECC value less than 12 is marked “A”)
"Cn1nc2nc1-c1cc(ccn1)Cc1c(F)cc3[nH]ccc3c1CCS(=O)(=O)CC(C)(C)CCC[C@]2(C)c1cccc(CC(C)(C)C(=O)O)c1 (racemic) [Compound 295, 2,2-dimethyl-3-[3-[rac-(6R)-22-fluoro-3,6,10,10-tetramethyl-12,12-dioxo-12λ6-thia-3,4,19,28,30-pentazapentacyclo[23.3.1.12,5.015,23.016,20]triaconta-1(29),2(30),4,15,17,20,22,25,27-nonaen-6-yl]phenyl]propanoic Acid]",DSLS 3D (100 μM ΔT),[1],B (a value above 5 °C and less than or equal to 10 °C is marked “B”)
same,"TECC (AUC, 10 μM)",[2],B (a value between 12-20 is marked “B”)
"Cn1nc2nc1-c1cc(ccc1F)Oc1c(F)cc3[nH]ccc3c1CCS(=O)(=O)CCC(F)(F)CCC2(C)c1cccc(CCC(=O)O)c1 (single isomer, unassigned) [Compound 2A, 3-[3-(9,9,22,28-Tetrafluoro-3,6-dimethyl-12,12-dioxo-24-oxa-12λ^6-thia-3,4,19,30-tetrazapentacyclo[23.3.1.1^2,5.0^15,23.0^16,20]triaconta-1(29),2(30),4,15,17,20,22,25,27-nonaen-6-yl)phenyl]propanoic Acid]",DSLS 3D (100 μM ΔT),[1],B (a value above 5 °C and less than or equal to 10 °C is marked “B”)
same,"TECC (AUC, 10 μM)",[2],B (a value between 12-20 is marked “B”)
"Cn1nc2nc1-c1cc(ccc1F)Oc1c(F)cc3[nH]ccc3c1CCS(=O)(=O)CC(C)(C)CCCC2(C)c1cccc(C(O)C2NC(=O)NC2=O)c1 (stereo not shown) [Compound 176, 5-[[3-(22,28-Difluoro-3,6,10,10-tetramethyl-12,12-dioxo-24-oxa-12λ6-thia-3,4,19,30-tetrazapentacyclo[23.3.1.12,5.015,23.016,20]triaconta-1(29),2(30),4,15,17,20,22,25,27-nonaen-6-yl)phenyl]-hydroxy-methyl]imidazolidine-2,4-dione]",DSLS 3D (100 μM ΔT),[1],C (a value greater than 10 °C and less than or equal to 25 °C is marked “C”)
same,"TECC (AUC, 10 μM)",[2],B (a value between 12-20 is marked “B”)
"Cn1nc2nc1-c1cc(ccc1F)Oc1c(F)cc3[nH]ccc3c1CCS(=O)(=O)CC(C)(C)CCCC2(C)c1cccc(CCO)c1 (single isomer, unassigned) [Compound 4B, 2-[3-(22,28-Difluoro-3,6,10,10-tetramethyl-12,12-dioxo-24-oxa-12λ^6-thia-3,4,19,30-tetrazapentacyclo[23.3.1.1^2,5.0^15,23.0^16,20]triaconta-1(29),2(30),4,15,17,20,22,25,27-nonaen-6-yl)phenyl]ethanol]",DSLS 3D (100 μM ΔT),[1],A (an ΔTagg value less than or equal to 5 °C is marked “A”)
same,"TECC (AUC, 10 μM)",[2],A (a TECC value less than 12 is marked “A”)
"COC(Cc1cccc(C2(C)CCCC(C)(C)CS(=O)(=O)CCc3c(c(F)cc4[nH]ccc34)Oc3ccc(F)c(c3)-c3nc2nn3C)c1)C(=O)O (single isomer, unassigned) [Compound 135A, 3-[3-(22,28-Difluoro-3,6,10,10-tetramethyl-12,12-dioxo-24-oxa-12λ6-thia-3,4,19,30-tetrazapentacyclo-[23.3.1.12,5.015,23.016,20]triaconta-1(29),2(30),4,15,17,20,22,25,27-nonaen-6-yl)phenyl]-2-methoxy-propanoic Acid]",DSLS 3D (100 μM ΔT),[1],A (an ΔTagg value less than or equal to 5 °C is marked “A”)
same,"TECC (AUC, 10 μM)",[2],A (a TECC value less than 12 is marked “A”)
"CC1(C)CCCC(C)(c2cccc(CCC(=O)O)c2)c2csc(n2)-c2cccc(c2)Oc2c(F)cc3[nH]ccc3c2CCS(=O)(=O)C1 (stereo not shown) [Compound 50, 3-[3-(22-Fluoro-6,10,10-trimethyl-12,12-dioxo-24-oxa-3,12λ6-dithia-19,30-diazapentacyclo[23.3.1.12,5.015,23.016,20]triaconta-1(29),2(30),4,15,17,20,22,25,27-nonaen-6-yl)phenyl]propanoic Acid]",DSLS 3D (100 μM ΔT),[1],C (a value greater than 10 °C and less than or equal to 25 °C is marked “C”)
same,"TECC (AUC, 10 μM)",[2],C (a value between 20 and 80 is marked “C”)
"CC(Cc1cccc(C2(C)CCCC(C)(C)CS(=O)(=O)CCc3c(c(F)cc4[nH]ccc34)Cn3cc(ccc3=O)-c3nc2nn3C)c1)C(=O)O (single isomer, unassigned) [Compound 132B, 3-[3-(22-fluoro-3,6,10,10-tetramethyl-12,12,26-trioxo-12λ6-thia-3,4,19,25,30-pentazapentacyclo-[23.3.1.12,5.015,23.016,20]triaconta-1(29),2(30),4,15,17,20,22,27-octaen-6-yl)phenyl]-2-methyl-propanoic Acid]",DSLS 3D (100 μM ΔT),[1],C (a value greater than 10 °C and less than or equal to 25 °C is marked “C”)
same,"TECC (AUC, 10 μM)",[2],A (a TECC value less than 12 is marked “A”)
